# Legend:
# blackgrass = test: Test D pre-/postemergence herbicide test; type: in vivo, Alopecurus myosuroides; details: for Plant response rating: Blackgrass, scale 0 to 100; for Plant response rating, Blackgrass: scale 0 to 100 (0 no effect, 100 complete control)
# Method in brief: (§1)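 Compound applied in non-phytotoxic solvent with surfactant, either preemergence (silt loam soil) or postemergence (peat moss/vermiculite medium, 2–18 cm plants). Evaluated visually after 7 to 21 days; 0 = no effect, 100 = complete control.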
# velvetleaf = test: Test E preemergence herbicide test; type: in vivo, Abutilon theophrasti; design: key: 0 = no effect, 100 = complete control
# Method in brief: (§2)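 Planted in silt loam; preemergence spray, non-phytotoxic solvent/surfactant formulation; greenhouse 21 d; visual score 0–100 vs controls.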
# nutsedge, yellow = test: Test E preemergence herbicide test; type: in vivo, Cyperus esculentus; design: key: 0 = no effect, 100 = complete control
# Method in brief: as §2
# canarygrass = test: Test D pre-/postemergence herbicide test; type: in vivo, Phalaris minor; details: for Plant response rating: Canarygrass, scale 0 to 100; for Plant response rating, Canarygrass: scale 0 to 100 (0 no effect, 100 complete control)
# Method in brief: as §1
# goosegrass = test: Test E preemergence herbicide test; type: in vivo, Eleusine indica; design: key: 0 = no effect, 100 = complete control
# Method in brief: as §2
# oilseed rape = test: Test D pre-/postemergence herbicide test; type: in vivo, Brassica napus; details: for Plant response rating: Postemergence, Oilseed Rape, scale 0 to 100; for Plant response rating, Oilseed Rape: Preemergence, scale 0 to 100 (0 no effect, 100 complete control)
# Method in brief: as §1
# nightshade = test: Test E preemergence herbicide test; type: in vivo, Solanum ptycanthum; design: key: 0 = no effect, 100 = complete control
# Method in brief: as §2
smiles,measurement,setting,value
"O=C1NCC(c2ccc(F)c(F)c2)C1C(=O)Nc1cccc(F)c1F (centres unmarked) [Compound 17, N-(2,3-difluorophenyl)-4-(3,4-difluorophenyl)-2-oxo-3-pyrrolidinecarboxamide]",Plant response rating,"blackgrass; Postemergence, 16 g ai/ha",0
same,Plant response rating,"blackgrass; Postemergence, 31 g ai/ha",0
same,Plant response rating,"blackgrass; Postemergence, 62 g ai/ha",0
same,Plant response rating,"blackgrass; Postemergence, 125 g ai/ha",0
same,Plant response rating,"blackgrass; Postemergence, 250 g ai/ha",0
same,"Plant response rating, Velvetleaf",velvetleaf; 16 g ai/ha,0
same,"Plant response rating, Velvetleaf",velvetleaf; 31 g ai/ha,0
same,"Plant response rating, Velvetleaf",velvetleaf; 62 g ai/ha,0
same,"Plant response rating, Velvetleaf",velvetleaf; 125 g ai/ha,0
same,"Plant response rating, Velvetleaf",velvetleaf; 250 g ai/ha,0
same,"Plant response rating, Nutsedge, Yellow","nutsedge, yellow; 16 g ai/ha",0
same,"Plant response rating, Nutsedge, Yellow","nutsedge, yellow; 31 g ai/ha",0
same,"Plant response rating, Nutsedge, Yellow","nutsedge, yellow; 62 g ai/ha",0
same,"Plant response rating, Nutsedge, Yellow","nutsedge, yellow; 125 g ai/ha",0
same,"Plant response rating, Nutsedge, Yellow","nutsedge, yellow; 250 g ai/ha",15
same,Plant response rating,"canarygrass; Postemergence, 16 g ai/ha",0
same,Plant response rating,"canarygrass; Postemergence, 31 g ai/ha",0
same,Plant response rating,"canarygrass; Postemergence, 62 g ai/ha",0
same,Plant response rating,"canarygrass; Postemergence, 125 g ai/ha",0
same,Plant response rating,"canarygrass; Postemergence, 250 g ai/ha",0
same,"Plant response rating, Goosegrass",goosegrass; 16 g ai/ha,0
same,"Plant response rating, Goosegrass",goosegrass; 31 g ai/ha,0
same,"Plant response rating, Goosegrass",goosegrass; 62 g ai/ha,0
same,"Plant response rating, Goosegrass",goosegrass; 125 g ai/ha,0
same,"Plant response rating, Goosegrass",goosegrass; 250 g ai/ha,35
same,Plant response rating,oilseed rape; 16 g ai/ha,0
same,Plant response rating,oilseed rape; 31 g ai/ha,0
same,Plant response rating,oilseed rape; 62 g ai/ha,10
same,Plant response rating,oilseed rape; 125 g ai/ha,20
same,Plant response rating,oilseed rape; 250 g ai/ha,40
same,"Plant response rating, Nightshade",nightshade; 16 g ai/ha,0
same,"Plant response rating, Nightshade",nightshade; 62 g ai/ha,0
same,"Plant response rating, Nightshade",nightshade; 125 g ai/ha,0
same,"Plant response rating, Nightshade",nightshade; 250 g ai/ha,0
"O=C1NC[C@H](c2cccc(C(F)(F)F)c2)[C@H]1C(=O)Nc1ccccc1F [Compound 204, (3R,4S)—N-(2-fluorophenyl)-2-oxo-4-[3-(trifluoromethyl)phenyl]-3-pyrrolidinecarboxamide]","Plant response rating, Blackgrass","blackgrass; Preemergence, 62 g ai/ha",10
same,"Plant response rating, Blackgrass","blackgrass; Preemergence, 125 g ai/ha",40
same,"Plant response rating, Blackgrass","blackgrass; Preemergence, 31 g ai/ha",5
same,Plant response rating,"blackgrass; Preemergence, 250 g ai/ha",65
same,"Plant response rating, Velvetleaf",velvetleaf; 31 g ai/ha,0
same,"Plant response rating, Velvetleaf",velvetleaf; 62 g ai/ha,0
same,"Plant response rating, Velvetleaf",velvetleaf; 125 g ai/ha,0
same,"Plant response rating, Velvetleaf",velvetleaf; 250 g ai/ha,0
same,"Plant response rating, Nutsedge, Yellow","nutsedge, yellow; 31 g ai/ha",0
same,"Plant response rating, Nutsedge, Yellow","nutsedge, yellow; 62 g ai/ha",0
same,"Plant response rating, Nutsedge, Yellow","nutsedge, yellow; 125 g ai/ha",0
same,"Plant response rating, Nutsedge, Yellow","nutsedge, yellow; 250 g ai/ha",0
same,"Plant response rating, Canarygrass","canarygrass; Preemergence, 62 g ai/ha",10
same,"Plant response rating, Canarygrass","canarygrass; Preemergence, 125 g ai/ha",10
same,"Plant response rating, Canarygrass","canarygrass; Preemergence, 31 g ai/ha",0
same,Plant response rating,"canarygrass; Preemergence, 250 g ai/ha",75
same,"Plant response rating, Goosegrass",goosegrass; 31 g ai/ha,0
same,"Plant response rating, Goosegrass",goosegrass; 62 g ai/ha,0
same,"Plant response rating, Goosegrass",goosegrass; 125 g ai/ha,0
same,"Plant response rating, Goosegrass",goosegrass; 250 g ai/ha,0
same,"Plant response rating, Oilseed Rape",oilseed rape; 62 g ai/ha,0
same,"Plant response rating, Oilseed Rape",oilseed rape; 125 g ai/ha,0
same,"Plant response rating, Oilseed Rape",oilseed rape; 31 g ai/ha,0
same,"Plant response rating, Oilseed Rape",oilseed rape; 250 g ai/ha,0
same,"Plant response rating, Nightshade",nightshade; 31 g ai/ha,0
same,"Plant response rating, Nightshade",nightshade; 62 g ai/ha,20
same,"Plant response rating, Nightshade",nightshade; 125 g ai/ha,100
same,"Plant response rating, Nightshade",nightshade; 250 g ai/ha,100
